The record followed here is US20210395226A1, “SUBSTITUTED ARYL COMPOUND AND PREPARATION METHOD THEREFOR AND USE THEREOF” (SICHUAN KELUN-BIOTECH BIOPHARMACEUTICAL CO., LTD., priority 2018, published 2021).

The target in experiment [1] is T1, Adenosine A1 receptor (human) membrane (Homo sapiens, UniProt P30542).
T1 construct: purchased PerkinElmer ES-010-M400UA
T1 sequence (P30542 1-326): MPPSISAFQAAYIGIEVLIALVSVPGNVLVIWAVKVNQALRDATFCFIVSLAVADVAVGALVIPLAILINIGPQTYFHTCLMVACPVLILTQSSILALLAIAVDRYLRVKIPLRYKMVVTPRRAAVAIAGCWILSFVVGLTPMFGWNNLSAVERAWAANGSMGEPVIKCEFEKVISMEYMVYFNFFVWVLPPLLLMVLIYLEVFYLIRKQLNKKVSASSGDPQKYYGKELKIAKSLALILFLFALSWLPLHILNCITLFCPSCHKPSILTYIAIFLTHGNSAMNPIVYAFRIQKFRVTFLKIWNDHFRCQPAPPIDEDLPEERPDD
The experiment in a line: Determination of competitive inhibition constant (Ki) for adenosine A1 receptor, [3H]-DPCPX radioligand. It counts as binding. As to conditions: 1.0 nM [3H]-DPCPX. As for the experimental part: (§1) Test Example 1: Determination of Competitive Inhibition Constant (Ki) for Adenosine A1 and A2a Receptors
[^3H]-DPCPX (PerkinElmer, NET974250UC),
Adenosine A1 receptor (human) membrane (PerkinElmer, ES-010-M400UA),
assay buffer for A1 (25 mM HEPES, 5 mM MgCl2, 1 mM CaCl2, 100 mM NaCl, pH7.4), used to dilute adenosine A1 receptor (human) membrane and [^3H]-DPCPX;
wash buffer for A1 (25 mM HEPES, 5 mM MgCl2, 1 mM CaCl2, 100 mM NaCl, pH7.4);
(§2) Adenosine A1 receptor membrane was diluted to 0.025 μg/μl with assay buffer for A1, and Adenosine A2a receptor membrane was diluted to 0.05 μg/μl with assay buffer for A2a, so as to obtain Adenosine A1 receptor membrane dilution and Adenosine A2a receptor membrane dilution.
(§3) The compound to be tested and CGS-15943 were diluted with DMSO, and 1 W of the compound to be tested, high value control (0.5% DMSO), low value control (1000 nM CGS-15943) were added to a 96-well plate, and 100 W of Adenosine A1 receptor membrane dilution (containing 2.5 μg of membrane) was added to each well of the 96-well plate to obtain A1 detection plate; following the same steps, 100 W of Adenosine A2a receptor membrane dilution (containing 5.0 μg membrane) was added to each well of the 96-well plate to obtain A2a detection plate.
(§4) To the A1 detection plate, 100 μl of radioisotope-labeled ligand [^3H]-DPCPX (diluted with assay buffer for A1, working concentration of which was 1.0 nM) was added; and to the A2a detection plate, 100 μl of radioisotope-labeled ligand [^3H]-CGS-21680 (diluted with assay buffer for A2a, working concentration of which was 6.0 nM) was added. The A1 and A2a detection plates were sealed with tape, and incubated at room temperature for 1 h and 2 h, respectively.
(§5) Unifilter-96 GF/C filter plates were prepared, 50 μl of 0.3% PEI was added to each well of the Unifilter-96 GF/C filter plates, and the resulting filter plates were incubated at room temperature for not less than 0.5 h.
(§6) After the incubation was completed, the reaction solution was transferred from the A1 detection plate and the A2a detection plate to two Unifilter-96 GF/C filter plates, and washed with pre-cooled wash buffer for A1 and wash buffer for A2a, and then the filter plates were dried, sealed at bottom, then 50 W of Microscint 20 fluid scintillation cocktail was added, and then the filter plates were sealed at top, and counted by MicroBeta2 Reader.
(§7) Inhibition rate %=100−(signal value of test well−signal average value of low value control)/(signal average value of high value control−signal average value of low value control)*100.
(§8) EXCEL XLfit was used to fit IC50.
(§9) The calculation formula for competitive inhibition constant (Ki) was: Ki=IC50/(1+concentration of isotope-labeled ligand/Kd), wherein Kd was the dissociation constant of the isotope-labeled ligand.

Experiment [2] concerns the target T2, Adenosine A2a receptor (human) membrane (Homo sapiens, UniProt P29274).
T2 construct: purchased PerkinElmer RBHA2AM400UA
The experiment can be described thus: Determination of competitive inhibition constant (Ki) for adenosine A2a receptor, [3H]-CGS-21680 radioligand. It counts as binding. The conditions noted are these: for Ki(A1)/Ki(A2a): selectivity ratio A1 over A2a. As for the experimental part:
as §1
Adenosine A2a receptor (human) membrane (PerkinElmer, RBHA2AM400UA),
assay buffer for A2a (50 mM Tris-HCl, 10 mM MgCl2, 1 mM EDTA, pH7.4), used to dilute adenosine A2a receptor (human) membrane (human origin) and [^3H]-CGS-21680; and
wash buffer for A2a (50 mM Tris-HCl, 154 mM NaCl, pH7.4).
as §2, §3, §4, §5, §6, §7, §8, §9

Setting [3] is: human A2a receptor membrane, 6.0 nM [3H]-CGS-21680, read-out: Ki(A2a).

The term Ki denotes the equilibrium dissociation constant of an inhibitor or competing ligand from its target.

The structures appear in SMILES notation. Where two headings read alike, the source gives them in different places.

T2 sequence (P29274 whole entry): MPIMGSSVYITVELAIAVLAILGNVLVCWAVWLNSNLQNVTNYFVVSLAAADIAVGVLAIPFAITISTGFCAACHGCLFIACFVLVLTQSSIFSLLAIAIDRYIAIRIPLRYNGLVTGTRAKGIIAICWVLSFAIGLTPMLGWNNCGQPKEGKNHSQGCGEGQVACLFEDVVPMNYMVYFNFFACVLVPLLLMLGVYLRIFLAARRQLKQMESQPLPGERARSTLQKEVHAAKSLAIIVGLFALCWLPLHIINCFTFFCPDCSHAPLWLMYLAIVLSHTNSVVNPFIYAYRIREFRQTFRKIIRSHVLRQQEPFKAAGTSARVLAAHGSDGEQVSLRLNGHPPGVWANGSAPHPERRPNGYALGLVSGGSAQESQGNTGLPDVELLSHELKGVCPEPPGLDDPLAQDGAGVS

With `Cc1cc(Cl)cc(-c2cnc(NC(=O)N3CCC(N4CCCCC4)CC3)nc2-c2ccc(C)o2)c1` [Compound 22, N-(5-(3-chloro-5-methylphenyl)-4-(5-methylfuran-2-yl)pyrimidin-2-yl)-[1,4′-bipiperidine]-1′-carboxamide], the Ki came to 1590 nM in experiment [1] and 6.6 nM in experiment [2] (setting [3]). In experiment [2], the “Ki(A1)/Ki(A2a)” value is 240.7.
For `COCCN(C)C(=O)Nc1ncc(-c2ccc3ncnc(C)c3c2)c(-c2ccc(F)cc2)n1` [Compound 31, 3-(4-(4-fluorophenyl)-5-(4-methylquinazolin-6-yl)pyrimidin-2-yl)-1-(2-methoxyethyl)-1-methylurea], the Ki amounted to 3330 nM in experiment [1] and 27.7 nM in experiment [2] (setting [3]). For the same compound, in experiment [2], the “Ki(A1)/Ki(A2a)” value was 120.1.
With `Cc1ncnc2ccc(-c3cnc(NC(=O)N4CCC(C#N)CC4)nc3-c3ccc(F)cc3)cc12` [Compound 10, 4-cyano-N-(4-(4-fluorophenyl)-5-(4-methylquinazolin-6-yl)pyrimidin-2-yl) piperidine-1-carboxamide], the figures for the Ki in experiment [1] and in experiment [2] (setting [3]) were 690 nM and 4.7 nM, respectively. Also, the “Ki(A1)/Ki(A2a)” value in experiment [2] came to 146.8.
In the case of `Cc1ccc(-c2nc(NC(=O)N3CCC(N4CCCCC4)CC3)nnc2-c2ccc3ncnc(C)c3c2)o1` [Compound 27, N-(5-(5-methylfuran-2-yl)-6-(4-methylquinazolin-6-yl)-1,2,4-triazin-3-yl)-[1,4′-bipiperidine]-1′-carboxamide], the values for the Ki in experiment [1] and in experiment [2] (setting [3]) were 422 nM and 4 nM, respectively. Also, the “Ki(A1)/Ki(A2a)” value in experiment [2] was 105.5.
As for `Cc1cc(-c2cnc(NC(=O)N3CCO[C@@H](C)C3)nc2-c2ccc(F)cc2)cc(Cl)n1` [Compound 36, (S)-N-(5-(2-chloro-6-methylpyridin-4-yl)-4-(4-fluorophenyl)pyrimidin-2-yl)-2-methylmorpholine-4-carboxamide], the Ki was 583 nM in experiment [1] and 10.6 nM in experiment [2] (setting [3]). In addition, the “Ki(A1)/Ki(A2a)” value in experiment [2] amounted to 55.0.
Turning to `Cc1ncnc2ccc(-c3ccc(NC(=O)N4CCOCC4)nc3-c3ccc(F)cc3)cc12` [Compound 41, N-(6-(4-fluorophenyl)-5-(4-methylquinazolin-6-yl)pyridin-2-yl)morpholine-4-carboxamide], the Ki in experiment [1] worked out at 2530 nM; in experiment [2] (setting [3]), 1.92 nM. For the same compound, the “Ki(A1)/Ki(A2a)” value in experiment [2] was found to be 1319.0.
For `Cc1ncnc2ccc(-c3cnc(NC(=O)N(C)Cc4ccccn4)nc3-c3ccc(F)cc3)cc12` [Compound 9, 3-(4-(4-fluorophenyl)-5-(4-methylquinazolin-6-yl)pyrimidin-2-yl)-1-methyl-1-(pyridine-2-methyl)urea], the figures for the Ki in experiment [1] and in experiment [2] (setting [3]) were 1230 nM and 3.7 nM, respectively. Further, the “Ki(A1)/Ki(A2a)” value in experiment [2] is reported as 331.8.
As for `Cc1cc(-c2cnc(NC(=O)N3CCO[C@H](C)C3)nc2-c2ccc(F)cc2)cc(Cl)n1` [Compound 38, (R)-N-(5-(2-chloro-6-methylpyridin-4-yl)-4-(4-fluorophenyl)pyrimidin-2-yl)-2-methylmorpholine-4-carboxamide], the Ki in experiment [1] is 1410 nM; in experiment [2] (setting [3]), 13.1 nM. Moreover, the “Ki(A1)/Ki(A2a)” value in experiment [2] stood at 107.4.
Turning to `Cc1ncnc2ccc(-c3cnc(NC(=O)N(C)c4ccccc4)nc3-c3ccc(F)cc3)cc12` [Compound 12, 3-(4-(4-fluorophenyl)-5-(4-methylquinazolin-6-yl)pyrimidin-2-yl)-1-methyl-1-phenylurea], the Ki in experiment [1] turned out to be 1210 nM; in experiment [2] (setting [3]), 8.8 nM. Further, the “Ki(A1)/Ki(A2a)” value in experiment [2] is 137.6.
For `Cc1ncnc2ccc(-c3cc(F)c(N)nc3-c3ccc(F)cc3)cc12` [Compound 2, 3-fluoro-6-(4-fluorophenyl)-5-(4-methylquinazolin-6-yl)pyridin-2-amine], the Ki in experiment [1] came out at 698 nM; in experiment [2] (setting [3]) it was 2.7 nM. Also, the “Ki(A1)/Ki(A2a)” value in experiment [2] was 258.6.
In the case of `Cc1cc(-c2c(C#N)cc(NC(=O)N3CCOCC3)nc2-c2ccc(F)cc2)cc(Cl)n1` [Compound 45, N-(2′-chloro-4-cyano-2-(4-fluorophenyl)-6′-methyl-[3,4′-bipyridyl]-6-yl) morpholine-4-carboxamide], the values for the Ki in experiment [1] and in experiment [2] (setting [3]) were 1370 nM and 11.8 nM, respectively. The “Ki(A1)/Ki(A2a)” value in experiment [2] is 115.3.
As to `Cc1ncnc2ccc(-c3cc(F)c(NC(=O)N(C)Cc4ccccn4)nc3-c3ccc(F)cc3)cc12` [Compound 4, 3-(3-fluoro-6-(4-fluorophenyl)-5-(4-methylquinazolin-6-yl)pyridin-2-yl)-1-methyl-1-(pyridin-2-ylmethyl)urea], the Ki was found to be 5680 nM in experiment [1] and 13.6 nM in experiment [2]. Also, the “Ki(A1)/Ki(A2a)” value in experiment [2] was 417.3.
In the case of `Cc1cc(Cl)cc(-c2nnc(NC(=O)N3CCC(N4CCCCC4)CC3)nc2-c2ccc(C)o2)c1` [Compound 28, N-(6-(3-chloro-5-methylphenyl)-5-(5-methylfuran-2-yl)-1,2,4-triazin-3-yl)-[1,4′-bipiperidine]-1′-carboxamide], the Ki in experiment [1] is 1780 nM; in experiment [2] (setting [3]) it was 9 nM. Moreover, the “Ki(A1)/Ki(A2a)” value in experiment [2] is listed as 197.5.
For `Cc1ncnc2ccc(-c3cnc(NC(=O)NCc4ccccn4)nc3-c3ccc(F)cc3)cc12` [Compound 6, 1-(4-(4-fluorophenyl)-5-(4-methylquinazolin-6-yl)pyrimidin-2-yl)-3-(pyridine-2-methyl)urea], in that order: over 7920 nM, 14.3 nM and over 553.6.
With `Cc1cc(-c2cnc(N)nc2-c2ccc(F)cc2)cc(Cl)n1` [Compound 17, 5-(2-chloro-6-methylpyridin-4-yl)-4-(4-fluorophenyl)pyrimidin-2-amine], the values for the Ki in experiment [1] and in experiment [2] (setting [3]) were 205 nM and 4.6 nM, respectively. In addition, in experiment [2], the “Ki(A1)/Ki(A2a)” value was found to be 44.5.
On to `CN(Cc1ccccn1)C(=O)Nc1ncc(-c2cc(Cl)nc(C(F)(F)F)c2)c(-c2ccc(F)cc2)n1` [Compound 16, 3-(5-(2-chloro-6-(trifluoromethyl)pyridin-4-yl)-4-(4-fluorophenyl)pyrimidin-2-yl)-1-methyl-1-(pyridin-2-ylmethyl)urea], for which the values for the Ki in experiment [1] and in experiment [2] (setting [3]) were 7770 nM and 21.5 nM, respectively. Further, the “Ki(A1)/Ki(A2a)” value in experiment [2] is given as 361.6.
In the case of `Cc1cc(-c2nnc(NC(=O)N3CCC(N4CCCCC4)CC3)nc2-c2ccc(C)o2)cc(Cl)n1` [Compound 26, N-(6-(2-chloro-6-methylpyridin-4-yl)-5-(5-methylfuran-2-yl)-1,2,4-triazin-3-yl)-[1,4′-bipiperidine]-1′-carboxamide], the Ki worked out at 4000 nM in experiment [1] and 9.9 nM in experiment [2] (setting [3]). Moreover, in experiment [2], the “Ki(A1)/Ki(A2a)” value is listed as 403.8.
Regarding `Cc1ncnc2ccc(-c3cnc(N)nc3-c3ccc(F)cc3)cc12` [Compound 3, 4-(4-fluorophenyl)-5-(4-methylquinazolin-6-yl)pyrimidin-2-amine], the Ki in experiment [1] came out at 178 nM; in experiment [2] (setting [3]), 1.6 nM. For the same compound, the “Ki(A1)/Ki(A2a)” value in experiment [2] came out at 111.3.
Consider `Cc1ccnc2ccc(-c3c(-c4ccc(F)cc4)nc(NC(=O)N4CCOCC4)nc3C3CC3)cc12` [Compound 47, N-(4-cyclopropyl-6-(4-fluorophenyl)-5-(4-methylquinolin-6-yl)pyrimidin-2-yl)morpholine-4-carboxamide], for which the Ki in experiment [1] was 217 nM; in experiment [2] (setting [3]) it was 5.13 nM. Also, in experiment [2], the “Ki(A1)/Ki(A2a)” value is recorded as 42.4.
